# Data as given in patent US20150105429A1, “BENZYL SULFONAMIDE DERIVATIVES AS RORC MODULATORS” (Genentech, Inc., priority 2011, published 2015).
# Molecular target: T1, RORc ligand binding domain (Homo sapiens, UniProt P51449)
# T1 construct: host or cells: E. coli
# T1 sequence (P51449 269-508 limits assumed): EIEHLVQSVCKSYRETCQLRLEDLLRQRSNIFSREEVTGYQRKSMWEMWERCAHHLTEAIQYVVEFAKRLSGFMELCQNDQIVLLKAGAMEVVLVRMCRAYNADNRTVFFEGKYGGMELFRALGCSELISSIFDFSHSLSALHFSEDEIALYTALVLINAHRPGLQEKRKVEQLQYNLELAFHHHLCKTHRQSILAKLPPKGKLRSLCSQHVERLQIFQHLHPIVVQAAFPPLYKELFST
# Test: In Vitro RORc Ligand Binding Assay
# Settings: radioligand 25-[3H]hydroxycholesterol 6 nM; 0.6 ug/mL RORc receptor; 3 h at 25° C.; read-out: IC50 values (micromolar) for RORc affinity
# Protocol: This assay was used to determine a compound's potency in inhibiting activity of RORc by determining, Kiapp, IC50, or percent inhibition values.
# On day of the assay, 100 uL of 0.05% CHAPS (in deionized H2O) was added to all wells of the GFB Unifilter plate and allowed soak for 1 h. A wash buffer of 50 mM HEPES (pH 7.4), 150 mM NaCl, and 5 mM MgCl2 was prepared to wash the filter plate. To prepare an assay buffer, BSA was added to the wash buffer to reach 0.01% and DTT was added to reach 1 mM.
# The 20× compound stocks were diluted in DMSO with Assay Buffer 4-fold to reach 5× the final test concentration in 25% DMSO (10 uL compound+30 uL Assay Buffer). Solutions were mixed by aspiration several times with a pipette set on 50 uL volume. For the assay, 10 uL of 5× compound stock solutions in 25% DMSO were added to the assay plate in duplicate.
# For two point screening, 10 mM stock compound solutions were diluted in DMSO to obtain 200 uM (20× the high test concentration) and then diluted 10-fold further to reach 20 uM (20× the low test concentration). The 20× stocks were diluted 4-fold with Assay Buffer (10 uL compound+30 uL Assay Buffer) to reach 5× the test concentrations (50 uM and 5 uM) and 10 uL were added to two assay plates for the duplicate wells. With each concentration tested on 2 plates, each set of 80 compounds used 4 assay plates (1 uM and 10 uM, with n=2).
# For 25-hydroxycholesterol in 25% DMSO/75% Assay Buffer; 10 uL per well was used for NSB samples. Wells for Total Binding and No Receptor sample determination contained 10 uL of 25% DMSO/75% Assay Buffer per well.
# Radioligand (25-[^3H]hydroxycholesterol) Preparation
# Added 20 uL to all wells to reach 6 nM final in the assay.
# Stock receptor solution was diluted in assay buffer to obtain 1.5 ug/mL in Assay Buffer. 20 uL was added to all wells. For No R samples, 20 uL Assay Buffer was substituted for receptor solution.
# Assay plates were 96-well polypropylene V-bottom plates. 10 uL of 5× compound in 25% DMSO/75% Assay Buffer was added to Test wells. 10 uL of 25% DMSO/75% Assay Buffer was added to Total Binding or No Receptor wells. 10 uL of 5 uM 25-hydroxycholesterol in 25% DMSO/75% Assay Buffer was added to NSB wells. […] 20 uL of 1.5 ug/mL RORc receptor was added to wells (or 40 uL Assay Buffer to No R wells). Following addition to the wells, the plates were incubated 3 h at 25° C.
# Using a Packard Filtermate Harvester, the filter plates were washed 4 times following transfer of the incubated samples. Plates were dry-filtered completely (2 h at 50° C. or overnight at room temperature). 50 uL Microscint 0 was added to all wells and read on Topcount protocol Inverted.
# Final concentrations were as follows: 50 mM HEPES buffer (pH 7.4); 150 mM NaCl; 1 mM DTT; 5 mM MgCl2; 0.01% BSA; 5% DMSO; 0.6 ug/mL RORc receptor; 6 nM 25-[^3H]hydroxycholesterol. For NSB wells, 1 uM 25-hydroxycholesterol was also present.
row,IC50,SMILES
1,0.614 µM,"CC(C)CN(Cc1ccc(-c2ccncc2)s1)S(=O)(=O)Cc1ccccc1 [Compound 38, N-Isobutyl-C-phenyl-N-(5-pyridin-4-yl-thiophen-2-ylmethyl)-methanesulfonamide]"
2,1.4 µM,"CC(C)CN(Cc1ccc(-c2cccc(C(N)=O)c2)s1)S(=O)(=O)Cc1ccccc1 [Compound 41, 3-{5-[(Isobutyl-phenylmethanesulfonyl-amino)-methyl]-thiophen-2-yl}-benzamide]"
3,2.4 µM,"CC(C)CN(Cc1ccc(-c2cccc(C(=O)N(C)C)c2)s1)S(=O)(=O)Cc1ccccc1 [Compound 43, 3-{5-[(Isobutyl-phenylmethanesulfonyl-amino)-methyl]-thiophen-2-yl}-N,N-dimethyl-benzamide]"
4,2.5 µM,"CC(C)CN(Cc1ccc(-c2cncc(S(C)(=O)=O)c2)s1)S(=O)(=O)Cc1ccccc1 [Compound 44, N-Isobutyl-N-[5-(5-methanesulfonyl-pyridin-3-yl)-thiophen-2-ylmethyl]-C-phenyl-methanesulfonamide]"
5,0.612 µM,"CC(C)CN(Cc1ccc(-c2cnn(C)c2)s1)S(=O)(=O)Cc1ccccc1 [Compound 45, N-Isobutyl-N-[5-(1-methyl-1H-pyrazol-4-yl)-thiophen-2-ylmethyl]-C-phenyl-methanesulfonamide]"
6,1.2 µM,"CC(C)CN(Cc1ccc(-c2ccnc(N)c2)s1)S(=O)(=O)Cc1ccccc1 [Compound 46, N-[5-(2-Amino-pyridin-4-yl)-thiophen-2-ylmethyl]-N-isobutyl-C-phenyl-methanesulfonamide]"
7,0.377 µM,"Cc1n[nH]c(C)c1-c1ccc(CN(CC(C)C)S(=O)(=O)Cc2ccccc2)s1 [Compound 49, N-[5-(3,5-Dimethyl-1H-pyrazol-4-yl)-thiophen-2-ylmethyl]-N-isobutyl-C-phenyl-methanesulfonamide]"
8,3.1 µM,"CC(C)CN(Cc1ccc(-c2cncc(C#N)c2)s1)S(=O)(=O)Cc1ccccc1 [Compound 50, N-[5-(5-Cyano-pyridin-3-yl)-thiophen-2-ylmethyl]-N-isobutyl-C-phenyl-methanesulfonamide]"
9,4.4 µM,"CNC(=O)c1ccc(-c2ccc(CN(CC(C)C)S(=O)(=O)Cc3ccccc3)s2)cn1 [Compound 51, 5-{5-[(Isobutyl-phenylmethanesulfonyl-amino)-methyl]-thiophen-2-yl}-pyridine-2-carboxylic acid methylamide]"
10,3 µM,"CC(=O)Nc1ccc(-c2ccc(CN(CC(C)C)S(=O)(=O)Cc3ccccc3)s2)cn1 [Compound 52, N-(5-{5-[(Isobutyl-phenylmethanesulfonyl-amino)-methyl]-thiophen-2-yl}-pyridin-2-yl)-acetamide]"
11,0.195 µM,"CC(C)N(Cc1ccc(-c2ccc(S(C)(=O)=O)cc2)s1)S(=O)(=O)Cc1ccccc1 [Compound 56, N-Isopropyl-N-[5-(4-methanesulfonyl-phenyl)-thiophen-2-ylmethyl]-C-phenyl-methanesulfonamide]"
12,5.1 µM,"COCCN(Cc1ccc(-c2ccc(S(C)(=O)=O)cc2)s1)S(=O)(=O)Cc1ccccc1 [Compound 57, N-[5-(4-Methanesulfonyl-phenyl)-thiophen-2-ylmethyl]-N-(2-methoxy-ethyl)-C-phenyl-methanesulfonamide]"
13,3.1 µM,"CCN(Cc1ccc(-c2ccc(S(C)(=O)=O)cc2)s1)S(=O)(=O)Cc1ccccc1 [Compound 58, N-Ethyl-N-[5-(4-methanesulfonyl-phenyl)-thiophen-2-ylmethyl]-C-phenyl-methanesulfonamide]"
14,0.278 µM,"CC(C)CN(Cc1cc(-c2ccc(S(C)(=O)=O)cc2)cs1)S(=O)(=O)Cc1ccccc1 [Compound 59, N-Isobutyl-N-[4-(4-methanesulfonyl-phenyl)-thiophen-2-ylmethyl]-C-phenyl-methanesulfonamide]"
15,1.8 µM,"CC(C)CN(Cc1ccc(-c2cccc(S(C)(=O)=O)c2)s1)S(=O)(=O)C1CCCC1 [Compound 60, Cyclopentanesulfonic acid isobutyl-[5-(3-methanesulfonyl-phenyl)-thiophen-2-ylmethyl]-amide]"
16,3.6 µM,"Cc1nn(C)c(C)c1S(=O)(=O)N(Cc1ccc(-c2cccc(S(C)(=O)=O)c2)s1)CC(C)C [Compound 61, 1,3,5-Trimethyl-1H-pyrazole-4-sulfonic acid isobutyl-[5-(3-methanesulfonyl-phenyl)-thiophen-2-ylmethyl]-amide]"
17,4.2 µM,"CC(C)CN(Cc1ccc(-c2cccc(S(C)(=O)=O)c2)s1)S(=O)(=O)c1cccnc1 [Compound 62, Pyridine-3-sulfonic acid isobutyl-[5-(3-methanesulfonyl-phenyl)-thiophen-2-ylmethyl]-amide]"
18,5 µM,"CC(C)CN(Cc1ccc(-c2cc(F)c(CO)c(S(C)(=O)=O)c2)s1)S(=O)(=O)Cc1ccccc1 [Compound 63, N-((5-(3-fluoro-4-(hydroxymethyl)-5-(methylsulfonyl)phenyl)thiophen-2-yl)methyl)-N-isobutyl-1-phenylmethanesulfonamide]"
19,2 µM,"CC(C)CN(Cc1ncc(-c2ccc(S(C)(=O)=O)c(F)c2)s1)S(=O)(=O)Cc1ccccc1 [Compound 64, N-((5-(3-fluoro-4-(methylsulfonyl)phenyl)thiazol-2-yl)methyl)-N-isobutyl-1-phenylmethanesulfonamide]"
20,2 µM,"CC(C)CN(Cc1ccc(-c2ccc(S(C)(=O)=O)cc2)cn1)S(=O)(=O)Cc1ccccc1 [Compound 65, N-isobutyl-N-((5-(4-(methylsulfonyl)phenyl)pyridin-2-yl)methyl)-1-phenylmethanesulfonamide]"
21,0.77 µM,"CC(C)CN(Cc1ccc(-c2ccc(S(C)(=O)=O)cc2)nc1)S(=O)(=O)Cc1ccccc1 [Compound 66, N-isobutyl-N-((6-(4-(methylsulfonyl)phenyl)pyridin-3-yl)methyl)-1-phenylmethanesulfonamide]"
22,3 µM,"CC(C)CN(Cc1cccc(-c2cccc(S(C)(=O)=O)c2)c1)S(=O)(=O)Cc1ccccc1 [Compound 67, N-isobutyl-N-((3′-(methylsulfonyl)-[1,1′-biphenyl]-3-yl)methyl)-1-phenylmethanesulfonamide]"
23,0.32 µM,"CC(C)CN(Cc1csc(-c2ccc(S(C)(=O)=O)cc2)c1)S(=O)(=O)Cc1ccccc1 [Compound 68, N-isobutyl-N-((5-(4-(methylsulfonyl)phenyl)thiophen-3-yl)methyl)-1-phenylmethanesulfonamide]"
24,0.074 µM,"CC(C)CN(Cc1ccc(-c2ccc(S(C)(=O)=O)cc2)c(C#N)c1)S(=O)(=O)Cc1ccccc1 [Compound 69, N-((2-cyano-4′-(methylsulfonyl)-[1,1′-biphenyl]-4-yl)methyl)-N-isobutyl-1-phenylmethanesulfonamide]"
